Literature values in PubChem BioAssay AID1259409 (Chemical Carcinogenesis Research Information System (CCRIS), 2018).

System: rodent chemically induced tumor inhibition, incidence and multiplicity
Experiment: CCRIS tumor inhibitor studies

NCCCC(N)(C(=O)O)C(F)F (centres undefined)
tumour outcome (control, treated, inhibition, significance) (Carcinogen: N-ETHYL-N-NITROSOUREA, 759-73-9, Dose [Inhibitor]: 0, 500 MG/KG DIET FOR DURATION OF STUDY BEGINNING POST CARCINOGEN DOSE (STUDY DURATION: 35 WK), Route [Inhibitor]: ORAL, Species: MOUSE, Strain/Sex: PIM/MALE, Target Tissue: Type of Lesion: LYMPHATIC SYSTEM: LYMPHOMA, Dose [Carcinogen]: 50 MG/KG BW ONCE, Promoter: NONE USED): 21/40 (53%), 9/28 (32%), 40%, not significant | tumour outcome (control, treated, inhibition, significance) (Carcinogen: N-ETHYL-N-NITROSOUREA, 759-73-9, Dose [Inhibitor]: 0, 1000 MG/KG DIET FOR DURATION OF STUDY BEGINNING POST CARCINOGEN DOSE (STUDY DURATION: 35 WK), Route [Inhibitor]: ORAL, Species: MOUSE, Strain/Sex: PIM/MALE, Target Tissue: Type of Lesion: LYMPHATIC SYSTEM: LYMPHOMA, Dose [Carcinogen]: 50 MG/KG BW ONCE, Promoter: NONE USED): 21/40 (53%), 16/40 (40%), 26%, not significant | tumour outcome (control, treated, inhibition, significance) (Carcinogen: N-METHYL-N'-NITRO-N-NITROSOGUANIDINE, 70-25-7, Dose [Inhibitor]: 0, 0.5% IN DRINKING WATER ADMINISTERED CONCURRENTLY WITH CARCINOGEN FOR 35 WK (STUDY DURATION: 85 WK), Route [Inhibitor]: ORAL, Species: RAT, Strain/Sex: WISTAR/MALE, Target Tissue: Type of Lesion: DUODENUM: TUMOR, Dose [Carcinogen]: 2.5 MG IN DRINKING WATER FOR 35 WK, Promoter: NONE USED): 4/22 (18%), 9/25 (36%), -100%, not significant | tumour outcome (control, treated, inhibition, significance) (Carcinogen: N-METHYL-N'-NITRO-N-NITROSOGUANIDINE, 70-25-7, Dose [Inhibitor]: 0, 0.5% IN DRINKING WATER ADMINISTERED CONCURRENTLY WITH CARCINOGEN FOR 35 WK (STUDY DURATION: 85 WK), Route [Inhibitor]: ORAL, Species: RAT, Strain/Sex: WISTAR/MALE, Target Tissue: Type of Lesion: STOMACH: ADENOCARCINOMA, Dose [Carcinogen]: 2.5 MG IN DRINKING WATER FOR 35 WK, Promoter: NONE USED): 12/22 (55%), 3/25 (12%), 78%, p<0.005 | tumour outcome (control, treated, inhibition, significance) (Carcinogen: N-METHYL-N'-NITRO-N-NITROSOGUANIDINE, 70-25-7, Dose [Inhibitor]: 0, 0.5% IN DRINKING WATER ADMINISTERED CONCURRENTLY WITH CARCINOGEN FOR 35 WK (STUDY DURATION: 85 WK), Route [Inhibitor]: ORAL, Species: RAT, Strain/Sex: WISTAR/MALE, Target Tissue: Type of Lesion: STOMACH: ADENOMA, Dose [Carcinogen]: 2.5 MG IN DRINKING WATER FOR 35 WK, Promoter: NONE USED): 5/22 (23%), 4/25 (16%), 30%, not significant | tumour outcome (control, treated, inhibition, significance) (Carcinogen: N-METHYL-N'-NITRO-N-NITROSOGUANIDINE, 70-25-7, Dose [Inhibitor]: 0, 0.5% IN DRINKING WATER ADMINISTERED CONCURRENTLY WITH CARCINOGEN FOR 35 WK (STUDY DURATION: 85 WK), Route [Inhibitor]: ORAL, Species: RAT, Strain/Sex: WISTAR/MALE, Target Tissue: Type of Lesion: STOMACH: SARCOMA, Dose [Carcinogen]: 2.5 MG IN DRINKING WATER FOR 35 WK, Promoter: NONE USED): 2/22 (9%), 0/25 (0%), 100%, not significant | tumour outcome (control, treated, inhibition, significance) (Carcinogen: N-METHYL-N'-NITRO-N-NITROSOGUANIDINE, 70-25-7, Dose [Inhibitor]: 0, 1% IN DRINKING WATER ADMINISTERED CONCURRENTLY WITH CARCINOGEN FOR 35 WK (STUDY DURATION: 85 WK), Route [Inhibitor]: ORAL, Species: RAT, Strain/Sex: WISTAR/MALE, Target Tissue: Type of Lesion: DUODENUM: TUMOR, Dose [Carcinogen]: 2.5 MG IN DRINKING WATER FOR 35 WK, Promoter: NONE USED): 4/22 (18%), 9/25 (36%), -100%, not significant | tumour outcome (control, treated, inhibition, significance) (Carcinogen: N-METHYL-N'-NITRO-N-NITROSOGUANIDINE, 70-25-7, Dose [Inhibitor]: 0, 1% IN DRINKING WATER ADMINISTERED CONCURRENTLY WITH CARCINOGEN FOR 35 WK (STUDY DURATION: 85 WK), Route [Inhibitor]: ORAL, Species: RAT, Strain/Sex: WISTAR/MALE, Target Tissue: Type of Lesion: STOMACH: ADENOCARCINOMA, Dose [Carcinogen]: 2.5 MG IN DRINKING WATER FOR 35 WK, Promoter: NONE USED): 12/22 (55%), 5/25 (20%), 64%, p<0.05 | tumour outcome (control, treated, inhibition, significance) (Carcinogen: N-METHYL-N'-NITRO-N-NITROSOGUANIDINE, 70-25-7, Dose [Inhibitor]: 0, 1% IN DRINKING WATER ADMINISTERED CONCURRENTLY WITH CARCINOGEN FOR 35 WK (STUDY DURATION: 85 WK), Route [Inhibitor]: ORAL, Species: RAT, Strain/Sex: WISTAR/MALE, Target Tissue: Type of Lesion: STOMACH: ADENOMA, Dose [Carcinogen]: 2.5 MG IN DRINKING WATER FOR 35 WK, Promoter: NONE USED): 5/22 (23%), 3/25 (12%), 48%, not significant | tumour outcome (control, treated, inhibition, significance) (Carcinogen: N-METHYL-N'-NITRO-N-NITROSOGUANIDINE, 70-25-7, Dose [Inhibitor]: 0, 1% IN DRINKING WATER ADMINISTERED CONCURRENTLY WITH CARCINOGEN FOR 35 WK (STUDY DURATION: 85 WK), Route [Inhibitor]: ORAL, Species: RAT, Strain/Sex: WISTAR/MALE, Target Tissue: Type of Lesion: STOMACH: SARCOMA, Dose [Carcinogen]: 2.5 MG IN DRINKING WATER FOR 35 WK, Promoter: NONE USED): 2/22 (9%), 3/25 (12%), -33%, not significant | tumour outcome (control, treated, inhibition, significance) (Carcinogen: N-METHYL-N-BENZYLNITROSAMINE, 937-40-6, Dose [Inhibitor]: 0, 1% IN DEIONIZED WATER WITH ZINC-DEFICIENT DIET FOR 15 WK STARTING 1 HR POST CARCINOGEN TREATMENT (STUDY DURATION: 20, Route [Inhibitor]: ORAL, Species: RAT, Strain/Sex: SPRAGUE-DAWLEY/MALE, Target Tissue: Type of Lesion: ESOPHAGUS: TUMOR, Dose [Carcinogen]: 2 MG/KG BW ONCE ADMINISTERED AFTER 5 WK OF ZINC-DEFICIENT DIET TREATMENT): 89% (8/9), 10% (2/20), 89%, p<0.0001 | tumour outcome (control, treated, inhibition, significance) (Carcinogen: N-METHYL-N-NITROSOUREA, 684-93-5, Dose [Inhibitor]: 0, 0.5 IN 2% NORMAL URINE INTO HETEROTOPICALLY TRANSPLANTED BLADDER 2/WK FOR 22 WK BEGINNING 1 WK POST CARCINOGEN (STUDY, Route [Inhibitor]: INJECTION, Species: RAT, Strain/Sex: F344/MALE, Target Tissue: Type of Lesion: BLADDER: TRANSITIONAL CELL CARCINOMA, Dose [Carcinogen]: 0.25 MG IN 0.9% SALINE 1/WK FOR 3 WK INTO BLADDER 4 WK AFTER HETEROTOPIC TRANSPLANT INTO GLUTEAL MUSCLE): 31/38 (82%), 5/37 (16%), 80%, p<0.001 | tumour outcome (control, treated, inhibition, significance) (Carcinogen: N-METHYL-N-NITROSOUREA, 684-93-5, Dose [Inhibitor]: 0, 0.5 IN 2% NORMAL URINE INTO HETEROTOPICALLY TRANSPLANTED BLADDER 2/WK FOR 29 WK BEGINNING 1 WK POST CARCINOGEN (STUDY, Route [Inhibitor]: INJECTION, Species: RAT, Strain/Sex: F344/MALE, Target Tissue: Type of Lesion: BLADDER: TRANSITIONAL CELL CARCINOMA, Dose [Carcinogen]: 0.25 MG IN 0.9% SALINE ONCE INTO BLADDER 4 WK AFTER HETEROTOPIC TRANSPLANT INTO GLUTEAL MUSCLE): 15/35 (43%), 3/34 (9%), 79%, p<0.005 | tumour outcome (control, treated, inhibition, significance) (Carcinogen: N-METHYL-N-NITROSOUREA, 684-93-5, Dose [Inhibitor]: 0.5 ML OF 2% AGENT IN 0.9% SALINE SOLUTION TWICE IN WK 1 THEN ONCE 2 HR POST CARCINOGEN DOSE THEN TWICE IN WEEK 2 (STUDY, Route [Inhibitor]: INTRAVESICAL, Species: RAT, Strain/Sex: F344/MALE, Target Tissue: Type of Lesion: BLADDER: CARCINOMA, Dose [Carcinogen]: 0.25 MG IN 0.5 ML OF 0.9% SALINE SOLUTION ONCE, Promoter: URINE): 25/36 (69%), 25/37 (68%), 1%, not calculated
